# Reference: US20220282304A1, “SAME-SAMPLE ANTIBIOTIC SUSCEPTIBILITY TEST AND RELATED COMPOSITIONS, METHODS AND SYSTEMS” (CALIFORNIA INSTITUTE OF TECHNOLOGY, priority 2021, published 2022)
# Test system: Escherichia coli K12
# Experiment: Digital same-sample filtration AST at four cell densities (Example 7)
# Format: cell-based
# Settings: for treated condition EINAPV (fraction extracellular): untreated EINAPV 0; for Both (number of wells) / Empty (number of wells) / Extracellular only (number of wells) / Intracellular only (number of wells): 60 minutes 37° C., qPCR
# Method: The inoculum was small enough that no detectable difference in the sample's optical density at 600 mm (OD600) was detectable by a spectrophotometer with a sensitivity of 0.01 absorbance units. After an incubation at 37° C., the media became turbid with an OD600 of 0.22 absorbance units after 2.25 hours of incubation.
# In this experiment, the number and volume of sample partitions was restricted, for logistical reasons, to 96 partitions 10 μL in volume, specifically the wells of a 96-well plate. A goal was chosen of having a >98% chance of ending up with at least 48 empty partitions. When all partitions are the same volume, the following formula relates the expected number of empty partitions, the partition volume, and the density of cells.
# N is the total number of partitions, n is the number of empty partitions, V is the partition volume, D is the density of cells, and t is a threshold probability chosen by the practitioner. Thus, in order to achieve digital sample partitioning with the available 96-well plate, each 10 μL sample of the specimen practically contains between 0.02 and 2.5 cells on average. In this experiment, densities of 0, 0.5, 1, and 2 cells per sample were targeted. Due to systematic bias in the conversion of OD600 to cell density, the actual densities achieved were closer to 0, 0.09375, 0.1875, and 0.375 cells per sample. The specimen itself was diluted to a density of 37.5 CFU/mL (0.0375 cells/μL), 18.75 CFU/mL, and 9.375 CFU/mL to achieve the target sample densities. For the 0 cell samples, the specimen comprised sterile media.
# To begin the AST protocol, the 4 contrived clinical specimen dilutions were physically split into the 24 partitions each by transferring 10 μL of the sample, in 24 separate transfers (actually 3 transfers with a multichannel pipette of each dilution), to wells of a 96-well microtiter plate. Each well contained 15 μL of Mueller-Hinton Broth (MHB) growth media. Half of the wells (48) contained 0 μg/mL of dissolved ETP antibiotic and served as reference condition antibiotic exposures. The other half of the wells contained 1.67 μg/mL of ETP (for a final concentration of 1.0 μg/mL) and served as 48 treated condition antibiotic exposures. Thus, in total there were 8 groups of 12 replicate wells: a treated and an untreated group of wells for each of the four specimen dilutions. In actuality, however, due to operator error, 4 treated 0 cell conditions and 4 untreated 0 cell conditions were converted into the corresponding 0.1875 cell conditions.
# The 96 antibiotic exposures were incubated at 37° C. for 60 minutes.
# The entire volume of each antibiotic exposure was transferred to a Millipore® 96-well sterile polystyrene MultiScreenHTS® filter plate (Millipore-Sigma MSGVS2210). Each well of the filter plate contained a hydrophilic polyvinylidene fluoride (PVDF) filter membrane with a 0.22 μm pore size. A 96-well polypropylene microtiter plate was affixed to the bottom of the filter plate. At approximately 78 minutes after the start of the exposure, the antibiotic exposures were centrifuged at 2200 relative centrifugal force to speed the passage of the antibiotic exposure through the filter and into 96-well microtiter plate. The collected fluid was called the “filtrate.” It is expected that the filtrate will contain all or most of the extracellular nucleic acids present in the antibiotic exposure, but none of the intracellular nucleic acids in the antibiotic exposure.
# As soon as possible (e.g. 0-10 minutes) after the centrifugation of the filter plate, […] of fresh MHB media was spun through the filters after the first centrifugation (above) to wash away residual extracellular nucleic acids present in the small amount (about 3 μL) of fluid wetting the filters. This wash fluid is not collected with the filtrates.
# The filtrates were frozen at −80° C. to prevent hypothetical rRNA degradation. Lucigen DNA Extraction Buffer was not used to “extract” the filtrate DNA. […]
# [1] = Treated 1.0 μg ETP/mL, batch culture dilution 0 cells, 8 partitions
# [2] = Treated 1.0 μg ETP/mL, batch culture dilution 0.09375 cells, 12 partitions
# [3] = Treated 1.0 μg ETP/mL, batch culture dilution 0.1875 cells, 16 partitions
# [4] = Treated 1.0 μg ETP/mL, batch culture dilution 0.375 cells, 12 partitions
# [5] = Treated 1.0 μg ETP/mL, batch culture dilution 0 cells
# [6] = Treated 1.0 μg ETP/mL, batch culture dilution 0.09375 cells
# [7] = Treated 1.0 μg ETP/mL, batch culture dilution 0.1875 cells
# [8] = Treated 1.0 μg ETP/mL, batch culture dilution 0.375 cells
compound,measurement,setting,value
"C[C@@H](O)[C@H]1C(=O)N2C(C(=O)O)=C(S[C@@H]3CN[C@H](C(=O)Nc4cccc(C(=O)O)c4)C3)[C@H](C)[C@H]12 [ETP, ertapenem]",treated condition EINAPV (fraction extracellular),"1.0 μg/mL ETP, non-zero dilution 0.09375 cells",1
same,treated condition EINAPV (fraction extracellular),"1.0 μg/mL ETP, non-zero dilution 0.1875 cells",1
same,treated condition EINAPV (fraction extracellular),"1.0 μg/mL ETP, non-zero dilution 0.375 cells",1
same,susceptibility call (measured TRPQ higher than APTV),"1.0 μg/mL ETP, one pooled treated vs one pooled reference condition",susceptible
same,susceptibility call (binomial exact test),"1.0 μg/mL ETP, significance threshold 0.001",susceptible
same,Both (number of wells),[1],0
same,Empty (number of wells),[1],8
same,Extracellular only (number of wells),[1],0
same,Intracellular only (number of wells),[1],0
same,Both (number of wells),[2],0
same,Empty (number of wells),[2],10
same,Extracellular only (number of wells),[2],2
same,Intracellular only (number of wells),[2],0
same,Both (number of wells),[3],0
same,Empty (number of wells),[3],13
same,Extracellular only (number of wells),[3],3
same,Intracellular only (number of wells),[3],0
same,Both (number of wells),[4],0
same,Empty (number of wells),[4],2
same,Extracellular only (number of wells),[4],10
same,Intracellular only (number of wells),[4],0
same,Intact (expected number of cells),[5],0
same,Killed (expected number of cells),[5],0
same,Intact (expected number of cells),[6],0
same,Killed (expected number of cells),[6],2.14
same,Intact (expected number of cells),[7],0
same,Killed (expected number of cells),[7],3.32
same,Intact (expected number of cells),[8],0
same,Killed (expected number of cells),[8],15.69
same,"estimated cells lysed, all treated samples pooled","Treated 1.0 μg ETP/mL, sum over dilutions, rounded to 21 lysis events",21.25
